Values quoted from earlier work, collected in publication PMC8043539 (Journal of Enzyme Inhibition and Medicinal Chemistry, 2021).
pKi: −log10 of the molar value.

Molecular target: Sapp1p
Settings: inhibition of Sapp1p from C. parapsilosis

pKi | Molecule
9.52 | isovaleric acid-valine-valine-statine-alanine-statine [Pepstatin A, reference compound]
10.00 | CC(C)[C@H](NC(=O)OC(C)(C)C)C(=O)N[C@H](C(=O)N[C@@H](Cc1ccccc1)[C@@H](O)CC(=O)N[C@@H](C)C(=O)N[C@@H](Cc1ccccc1)[C@@H](O)CC(N)=O)C(C)C [KB70, tert-butyl-oxycarbonyl-valine-valine-phenylstatine-alanine-phenylstatine-NH2]
7.84 | COC(=O)[C@H](C)NC(=O)C[C@H](O)[C@H](Cc1ccccc1)NC(=O)[C@@H](NC(=O)[C@@H](NC(=O)OC(C)(C)C)C(C)C)C(C)C [KB74, tert-butyl-oxycarbonyl-valine-valine-phenylstatine-alanine-OMe]
